# Columns and labels:
# [1] = biological target: T1, Son of sevenless homolog 1 [564-1049] (Human, UniProt Q07889); experiment: Surface Plasmon Resonance (SPR) SOS1 Binding AssaySurface Plasmon Resonance (SPR) SOS1 Binding Assay
# T1 construct: 564-1049
# T1 sequence (Q07889 whole entry): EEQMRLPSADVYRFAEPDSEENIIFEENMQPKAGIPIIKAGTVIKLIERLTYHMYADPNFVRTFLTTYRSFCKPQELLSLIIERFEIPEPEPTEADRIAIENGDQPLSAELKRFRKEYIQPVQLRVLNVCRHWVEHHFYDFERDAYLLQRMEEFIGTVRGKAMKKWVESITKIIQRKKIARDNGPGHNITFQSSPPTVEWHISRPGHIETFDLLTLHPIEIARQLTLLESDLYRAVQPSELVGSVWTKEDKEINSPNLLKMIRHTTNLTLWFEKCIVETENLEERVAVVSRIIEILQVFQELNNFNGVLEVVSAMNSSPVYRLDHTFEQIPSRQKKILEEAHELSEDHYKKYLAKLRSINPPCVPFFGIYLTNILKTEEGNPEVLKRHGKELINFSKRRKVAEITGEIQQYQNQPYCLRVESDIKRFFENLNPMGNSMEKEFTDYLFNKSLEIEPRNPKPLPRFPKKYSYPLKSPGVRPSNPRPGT
# Experimental: Binding to SOS1 was measured using a SPR assay with purified recombinant human SOS1 substrate (res. 564-1049 with N-terminal Avi tag; purified and biotinylated based on Hillig, et al., Proc Natl Acad Sci USA (2019); 116(7):2551-2560). SPR measurements were performed on a Biacore 8K SPR instrument (GE Healthcare, Sweden). Assays were performed at 25° C. using Series S SA sensor chips pre-coated with streptavidin (GE Healthcare, Cat. BR100531). Biotinylated SOS1 diluted in sample buffer (20 mM Tris HCI, 150 mM NaCl, 1 mM DTT, 0.05% TWEEN 20, 1 mM MgCh, pH 8.0) was captured to one flow cell of the chip to about 3,000 resonance units (RU) using sample buffer supplemented with 5% DMSO as a running buffer. Serial dilutions of the assayed compounds in the running buffer at 100, 50 or 0.5 µM were injected for 60 s at a flow rate of 30 µL/min and association phases were recorded. Dissociation of the samples was monitored for 600 s. Data processing was performed using Biacore Insight Software (Biacore, GE Healthcare). Sensorgrams recorded on a SA flow cell without captured protein were subtracted from sensorgrams recorded on the SOS1 surface. Blank injections of running buffer were used for double referencing and solvent correction was applied to all sample sensorgrams to correct for buffer mismatches. KDS were estimated using a kinetic or steady state, where applicable, fitting model describing a reversible equilibrium with 1:1 binding between SOS1 and the compound.
# [2] = biological target: T2, Son of sevenless homolog 1 [564-1049]/GTPase KRas [G12C] (UniProt Q07889); experiment: SOS1 KRas(G12C) FRET Assay
# T2 construct: 564-1049
# Experimental: A 2x KRAS working solution was prepared in an assay buffer containing 5 nM GST-KRAS G12C and 2 nM anti-GST-Eu(K) (Cisbio, Cat. 61GSTKLA) and pre-incubated for 15 minutes at 25° C. […] The final DMSO concentration is 0.5%. […] FRET signal was converted to percentage of protein-protein interaction using the following equation:%Inhibition=100%-C-N/P-N*100%C: signal with compound treatmentP: signal for positive control (DMSO)N: signal for negative control (no SOS1 added).
# T2 sequence (P01116 whole entry G12C, one chain of several): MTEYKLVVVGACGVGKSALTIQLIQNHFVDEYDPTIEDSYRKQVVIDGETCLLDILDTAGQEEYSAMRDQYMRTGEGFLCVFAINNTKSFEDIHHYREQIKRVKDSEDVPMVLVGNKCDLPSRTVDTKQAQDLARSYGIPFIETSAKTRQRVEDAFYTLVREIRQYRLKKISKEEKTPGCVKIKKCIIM
Kd [1],IC50 [2],Compound
6 nM,–,"Cc1c([C@@H](C)NC(=O)c2cn(C3CCOCC3)c(=O)cc2NC2CCN(C)CC2)cccc1C(F)(F)F [US20230348424, Example 1]"
12 nM,–,"C[C@@H](NC(=O)c1cn(C23CC(C2)C3)c(=O)cc1N[C@H]1[C@@H]2CNC[C@@H]21)c1cccc(C(F)F)c1F [US20230348424, Example 89]"
24 nM,35.7 nM,"C[C@@H](NC(=O)c1cn(C2(C(F)(F)F)CC2)c(=O)cc1N[C@H]1[C@@H]2CN(C)C[C@@H]21)c1cccc(C(F)(F)F)c1F [US20230348424, Example 120]"
